Results: US20090149397A1, “TREATMENT OF CANCER WITH COMBINATIONS OF TOPOISOMERASE INHIBITORS AND PARP INHIBITORS” (priority 2007, published 2009)

Tests used:
[1] = system: human small cell lung cancer SW-2 cells; experiment: Subcutaneous xenograft model of SCLC, BA plus topotecan; type: in vivo, SCID mice; conditions: SW-2 xenograft; for tumor growth delay: topotecan i.p. 0.5, 1 or 2 mg/kg, BA 25 mg/kg/week continuous infusion, BA value in 3 out of 6 animals
Experimental: The anti-tumor effect of a combination of BA and topotecan, one of the approved drugs for the treatment of small cell lung cancer (SCLC) in humans, is evaluated in an established subcutaneous xenograft model of SCLC. SCID mice (24 animals) are inoculated with human small cell lung cancer SW-2 cells (8×10^6 cells/animal) injected subcutaneously into the right flank of the mice. When the tumors reach about 80 mm^3 in size, the mice are randomly divided into four groups (6 animals per group). The first group of mice is treated with topotecan administered i.p. […] Alzet model osmotic pumps are implanted on days 1, 15, and 29. The pumps are pre-warmed for ˜1 hour at 37° C., and then implanted subcutaneously (s.c.) in the left flanks of isofluoraneanesthetized mice. The third group of mice receives a combination of topotecan and BA, using the same doses and schedules as in groups 1 and 2. A control group of animals receives phosphate-buffered saline (PBS) using the same schedule as the animals in group 2. Tumor growth is monitored by measuring tumor size twice per week. Tumor size is calculated using the formula: length×width×height×(½).

[2] = system: human tumor cells including colon, prostate, cervix, lung, melanoma, lymphoma, and leukemia; experiment: In vitro proliferation of human tumor cells; type: cell-based
[3] = system: human colon, lung, and cervical carcinoma xenograft; experiment: Human colon, lung and cervical carcinoma xenograft models, BA administration; type: in vivo, nude and SCID mice

## CC[C@@]1(O)C(=O)OCc2c1cc1n(c2=O)Cc2cc3c(CN(C)C)c(O)ccc3nc2-1 [topotecan, reference compound]
[1]
  tumor growth delay: 12 days

## NC(=O)c1ccc(I)c([N+](=O)[O-])c1 [BA, 4-iodo-3-nitrobenzamide]
[2]
  inhibition of proliferation of human tumor cells: inhibits the proliferation
[1]; out of 6 treated animals per group
  complete tumor regression, number of animals: 3 animals
[1]
  tumor growth delay: 34 days
[3]; drug given daily or twice weekly
  survival rate of animals: positively affects the survival rate
[3]; once-daily or twice-weekly administration of BA
  tumor growth: inhibits tumor growth
